Laboratory results taken from patent publication US6914045B2, “Glycopeptide antibiotics” (Wyeth Holdings Corporation, priority 2001, dated 2005).
In brackets after ≈: the same amount, converted by molar mass.

Legend:
Experiment in all cases: in vitro antibacterial evaluation, MIC by broth dilution
Type in all cases: cell-based
Streptococcus sp. = settings: broth dilution, 18 hours at 35° C.; for MIC Streptococcus pneumoniae (ATCC 6301): strain ATCC 6301; for MIC Streptococcus pneumoniae (GC 1894): strain GC 1894; for MIC Streptococcus pyogenes (GC 4563): strain GC 4563; for MIC Streptococcus agalactiae (GC 4564): strain GC 4564; for MIC Streptococcus pneumoniae (GC 4565): strain GC 4565
In short: (§1)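 Broth dilution per NCCLS M7-A2 in Mueller-Hinton II medium, inoculum 5×10^5 CFU/mL, antibiotic range 64-0.06 μg/mL. MIC taken as lowest concentration inhibiting growth; Gram-positive panel includes recent clinical isolates resistant to methicillin, penicillin and/or vancomycin.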

Staphylococcus sp. = settings: broth dilution, 18 hours at 35° C.; for MIC Staphylococcus aureus (GC 1131): strain GC 1131
In short: as §1

Escherichia coli = test system: Escherichia coli
In short: as §1

Enterococcus sp. = settings: broth dilution, 18 hours at 35° C.; for MIC Enterococcus faecalis (ATCC 29212): strain ATCC 29212; for MIC Enterococcus faecalis (GC 2242): strain GC 2242; for MIC Enterococcus faecium (GC 2243): strain GC 2243; for MIC Enterococcus faecalis (GC 2691): strain GC 2691; for MIC Enterococcus faecalis (GC 3059): strain GC 3059; for MIC Enterococcus faecalis (GC 4552): strain GC 4552; for MIC Enterococcus faecalis (GC 4553): strain GC 4553; for MIC Enterococcus faecalis (GC 4554): strain GC 4554; for MIC Enterococcus faecium (GC 4556): strain GC 4556; for MIC Enterococcus faecium (GC 4557): strain GC 4557; for MIC Enterococcus avium (GC 4558): strain GC 4558; for MIC Enterococcus faecalis (GC 6189): strain GC 6189
In short: as §1

With `COc1cc(C2OCC3OC(OC4C(CO)OC(Oc5ccc(CC6NC(=O)C(C(C)c7ccccc7)NC(=O)CNC(=O)C(CO)NC(=O)C(C(O)C7CNC(=N)N7C7OC(CO)C(O)C(O)C7O)NC(=O)C(C(O)C7CNC(=N)N7)NC6=O)cc5)C(O)C4O)C(O)C(O)C3O2)cc([N+](=O)[O-])c1O` (centres unmarked) [Example 169] the “MIC Streptococcus pneumoniae (ATCC 6301)” value (Streptococcus sp.; inoculum 5×10^5 CFU/mL) was 8 µg/mL (≈ 5.43 µM), the “MIC Streptococcus pneumoniae (GC 1894)” value (Streptococcus sp.; inoculum 5×10^5 CFU/mL) was 8 µg/mL (≈ 5.43 µM) and the “MIC Streptococcus pyogenes (GC 4563)” value (Streptococcus sp.; inoculum 5×10^5 CFU/mL) was 16 µg/mL (≈ 10.9 µM). For the same compound, the “MIC Streptococcus agalactiae (GC 4564)” value (Streptococcus sp.; inoculum 5×10^5 CFU/mL) was 32 µg/mL (≈ 21.7 µM), the “MIC Streptococcus pneumoniae (GC 4565)” value (Streptococcus sp.; inoculum 5×10^5 CFU/mL) was 8 µg/mL (≈ 5.43 µM) and the “MIC Streptococcus pneumoniae (ATCC 6301)” value (Streptococcus sp.) was 8 µg/mL (≈ 5.43 µM). For the same compound, the “MIC Streptococcus pneumoniae (GC 1894)” value (Streptococcus sp.) was 8 µg/mL (≈ 5.43 µM), the “MIC Streptococcus pyogenes (GC 4563)” value (Streptococcus sp.) was 16 µg/mL (≈ 10.9 µM) and the “MIC Streptococcus agalactiae (GC 4564)” value (Streptococcus sp.) was 32 µg/mL (≈ 21.7 µM). The “MIC Streptococcus pneumoniae (GC 4565)” value (Streptococcus sp.) was 8 µg/mL (≈ 5.43 µM), the “MIC Staphylococcus aureus (GC 1131)” value (Staphylococcus sp.; inoculum 5×10^5 CFU/mL) was 32 µg/mL (≈ 21.7 µM) and the “MIC Staphylococcus aureus (ATCC 29213)” value (Staphylococcus sp.; strain ATCC 29213) was 32 µg/mL (≈ 21.7 µM). For the same compound, the “MIC Staphylococcus aureus (GC 1131)” value (Staphylococcus sp.) was 32 µg/mL (≈ 21.7 µM), the “MIC Staphylococcus aureus (GC 3051)” value (Staphylococcus sp.; strain GC 3051) was 32 µg/mL (≈ 21.7 µM) and the “MIC Staphylococcus aureus (GC 3053)” value (Staphylococcus sp.; strain GC 3053) was >64 µg/mL. For the same compound, the “MIC Staphylococcus aureus (GC 4541)” value (Staphylococcus sp.; strain GC 4541) was 32 µg/mL (≈ 21.7 µM), the “MIC Staphylococcus aureus (GC 4542)” value (Staphylococcus sp.; strain GC 4542) was 32 µg/mL (≈ 21.7 µM) and the “MIC Staphylococcus aureus-SMITH (GC 4543)” value (Staphylococcus sp.; strain GC 4543) was 32 µg/mL (≈ 21.7 µM). For the same compound, the “MIC Staphylococcus aureus (GC 4544)” value (Staphylococcus sp.; strain GC 4544) was 32 µg/mL (≈ 21.7 µM), the “MIC Staphylococcus aureus (GC 4545)” value (Staphylococcus sp.; strain GC 4545) was 32 µg/mL (≈ 21.7 µM) and the “MIC Staphylococcus haemolyticus (GC 4546)” value (Staphylococcus sp.; strain GC 4546) was 32 µg/mL (≈ 21.7 µM). For the same compound, the “MIC Coagulase Negative Staphylococcus (GC 4547)” value (Staphylococcus sp.; strain GC 4547) was 32 µg/mL (≈ 21.7 µM), the “MIC Coagulase Negative Staphylococcus (GC 4548)” value (Staphylococcus sp.; strain GC 4548) was 32 µg/mL (≈ 21.7 µM) and the “MIC Coagulase Negative Staphylococcus (GC 4549)” value (Staphylococcus sp.; strain GC 4549) was 16 µg/mL (≈ 10.9 µM). For the same compound, the “MIC Coagulase Negative Staphylococcus (GC 4551)” value (Staphylococcus sp.; strain GC 4551) was >64 µg/mL, the “MIC Coagulase Negative Staphylococcus (GC 6257)” value (Staphylococcus sp.; strain GC 6257) was 8 µg/mL (≈ 5.43 µM) and the “MIC Escherichia coli (ATCC 25922)” value (Escherichia coli; strain ATCC 25922, 18 hours at 35° C.) was >64 µg/mL. For the same compound, the “MIC Escherichia coli (GC 4559)” value (Escherichia coli; strain GC 4559, 18 hours at 35° C.) was >64 µg/mL, the “MIC Escherichia coli (GC 4560)” value (Escherichia coli; strain GC 4560, 18 hours at 35° C.) was 8 µg/mL (≈ 5.43 µM) and the “MIC Enterococcus faecalis (ATCC 29212)” value (Enterococcus sp.; inoculum 5×10^5 CFU/mL) was >64 µg/mL. The “MIC Enterococcus faecalis (GC 2242)” value (Enterococcus sp.; inoculum 5×10^5 CFU/mL) was > 64 µg/mL, the “MIC Enterococcus faecium (GC 2243)” value (Enterococcus sp.; inoculum 5×10^5 CFU/mL) was >64 µg/mL and the “MIC Enterococcus faecalis (GC 2691)” value (Enterococcus sp.; inoculum 5×10^5 CFU/mL) was >64 µg/mL. For the same compound, the “MIC Enterococcus faecalis (GC 3059)” value (Enterococcus sp.; inoculum 5×10^5 CFU/mL) was >64 µg/mL, the “MIC Enterococcus faecalis (GC 4552)” value (Enterococcus sp.; inoculum 5×10^5 CFU/mL) was >64 µg/mL and the “MIC Enterococcus faecalis (GC 4553)” value (Enterococcus sp.; inoculum 5×10^5 CFU/mL) was >64 µg/mL. The “MIC Enterococcus faecalis (GC 4554)” value (Enterococcus sp.; inoculum 5×10^5 CFU/mL) was >64 µg/mL, the “MIC Enterococcus faecium (GC 4556)” value (Enterococcus sp.; inoculum 5×10^5 CFU/mL) was >64 µg/mL and the “MIC Enterococcus faecium (GC 4557)” value (Enterococcus sp.; inoculum 5×10^5 CFU/mL) was 32 µg/mL (≈ 21.7 µM). The “MIC Enterococcus avium (GC 4558)” value (Enterococcus sp.; inoculum 5×10^5 CFU/mL) was >64 µg/mL, the “MIC Enterococcus faecalis (GC 6189)” value (Enterococcus sp.; inoculum 5×10^5 CFU/mL) was >64 µg/mL and the “MIC Enterococcus faecalis (ATCC 29212)” value (Enterococcus sp.) was >64 µg/mL. The “MIC Enterococcus faecalis (GC 2242)” value (Enterococcus sp.) was >64 µg/mL, the “MIC Enterococcus faecium (GC 2243)” value (Enterococcus sp.) was >64 µg/mL and the “MIC Enterococcus faecalis (GC 2691)” value (Enterococcus sp.) was >64 µg/mL. For the same compound, the “MIC Enterococcus faecalis (GC 3059)” value (Enterococcus sp.) was >64 µg/mL, the “MIC Enterococcus faecalis (GC 4552)” value (Enterococcus sp.) was >64 µg/mL and the “MIC Enterococcus faecalis (GC 4553)” value (Enterococcus sp.) was >64 µg/mL. For the same compound, the “MIC Enterococcus faecalis (GC 4554)” value (Enterococcus sp.) was >64 µg/mL, the “MIC Enterococcus faecium (GC 4556)” value (Enterococcus sp.) was >64 µg/mL and the “MIC Enterococcus faecium (GC 4557)” value (Enterococcus sp.) was 32 µg/mL (≈ 21.7 µM). The “MIC Enterococcus avium (GC 4558)” value (Enterococcus sp.) was >64 µg/mL and the “MIC Enterococcus faecalis (GC 6189)” value (Enterococcus sp.) was >64 µg/mL.
